From patent publication US10758534B2 (Vertex Pharmaceuticals Incorporated, priority 2014, dated 2020)

Target: T1, F508del (Homo sapiens, UniProt P13569, DEL508-508)
T1 construct: expressed in transfected cells
Test: Protocol 2: FRET membrane potential optical assay (VIPR), identification of correction compounds
Type: cell-based
Conditions: F508del CFTR modulator activity; compounds of Table 1; read-out: EC30
Summary of the method: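 NIH3T3 mouse fibroblasts stably expressing F508del-CFTR incubated with compound 16 h at 37 °C in serum-free medium, then loaded with CC2-DMPE/DiSBAC2(3) FRET dyes. Channel activated with 10 μM forskolin plus 20 μM genistein in Cl⁻-free (gluconate) bath; depolarisation from Cl⁻ efflux read on VIPR II.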

T1 sequence (P13569 with tags, fused parts or gaps DEL508-508): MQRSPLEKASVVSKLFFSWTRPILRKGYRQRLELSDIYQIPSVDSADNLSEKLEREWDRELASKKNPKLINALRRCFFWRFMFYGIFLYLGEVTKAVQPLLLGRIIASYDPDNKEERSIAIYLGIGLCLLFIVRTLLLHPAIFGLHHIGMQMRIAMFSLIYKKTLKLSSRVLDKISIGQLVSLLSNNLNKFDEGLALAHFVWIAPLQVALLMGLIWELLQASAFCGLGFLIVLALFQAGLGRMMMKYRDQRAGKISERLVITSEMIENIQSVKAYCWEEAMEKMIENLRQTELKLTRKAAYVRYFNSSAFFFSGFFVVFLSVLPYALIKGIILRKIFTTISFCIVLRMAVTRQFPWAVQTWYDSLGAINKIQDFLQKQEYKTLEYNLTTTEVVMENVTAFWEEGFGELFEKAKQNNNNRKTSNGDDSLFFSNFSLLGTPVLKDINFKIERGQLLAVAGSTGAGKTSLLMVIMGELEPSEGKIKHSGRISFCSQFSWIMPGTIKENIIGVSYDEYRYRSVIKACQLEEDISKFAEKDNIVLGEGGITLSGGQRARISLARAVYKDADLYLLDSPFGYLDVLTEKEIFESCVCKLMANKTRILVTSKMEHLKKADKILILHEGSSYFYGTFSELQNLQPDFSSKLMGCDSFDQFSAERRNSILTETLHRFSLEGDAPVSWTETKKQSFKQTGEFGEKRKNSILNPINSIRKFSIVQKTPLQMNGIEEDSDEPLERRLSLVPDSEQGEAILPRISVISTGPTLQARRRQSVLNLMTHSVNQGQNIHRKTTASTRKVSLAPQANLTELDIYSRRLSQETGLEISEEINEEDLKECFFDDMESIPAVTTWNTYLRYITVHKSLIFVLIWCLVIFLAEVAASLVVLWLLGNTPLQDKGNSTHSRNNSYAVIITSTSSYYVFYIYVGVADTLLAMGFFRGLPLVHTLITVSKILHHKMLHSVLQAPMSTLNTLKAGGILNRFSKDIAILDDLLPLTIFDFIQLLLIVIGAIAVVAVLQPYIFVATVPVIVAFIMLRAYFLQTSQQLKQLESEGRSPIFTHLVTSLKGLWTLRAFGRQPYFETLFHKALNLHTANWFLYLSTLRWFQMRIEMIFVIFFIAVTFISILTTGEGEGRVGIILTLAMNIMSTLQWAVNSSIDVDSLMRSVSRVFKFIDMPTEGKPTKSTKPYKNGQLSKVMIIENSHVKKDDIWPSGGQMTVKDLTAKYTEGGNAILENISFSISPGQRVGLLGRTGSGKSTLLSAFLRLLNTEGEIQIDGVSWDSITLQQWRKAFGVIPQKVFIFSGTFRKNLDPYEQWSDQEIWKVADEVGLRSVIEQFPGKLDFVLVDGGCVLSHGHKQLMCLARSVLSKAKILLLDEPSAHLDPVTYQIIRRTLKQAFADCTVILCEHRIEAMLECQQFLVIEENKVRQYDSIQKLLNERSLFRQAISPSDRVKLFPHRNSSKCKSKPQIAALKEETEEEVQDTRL

SMILES	EC30
C[C@@H]1CN(c2nc(-c3ccc(F)cc3F)ccc2C(=O)NS(=O)(=O)c2cccc(N)n2)C(C)(C)C1 [Compound 2372, N-[(6-amino-2-pyridyl)sulfonyl]-6-(2,4-difluorophenyl)-2-[(4S)-2,2,4-trimethylpyrrolidin-1-yl]pyridine-3-carboxamide]	< 3000 nM
CC1CN(c2nc(OC(C)C3CC3)c(F)cc2C(=O)NS(=O)(=O)c2cccc(N)n2)C(C)(C)C1 (stereo not drawn) [Compound 2373, N-[(6-amino-2-pyridyl)sulfonyl]-6-(1-cyclopropylethoxy)-5-fluoro-2-(2,2,4-trimethylpyrrolidin-1-yl)pyridine-3-carboxamide]	< 3000 nM
CC(C)COc1cc(F)cc(-c2ccc(C(=O)NS(=O)(=O)c3cccc(N)n3)c(NCC3CCCCC3)n2)c1 [Compound 2375, N-[(6-amino-2-pyridyl)sulfonyl]-2-(cyclohexylmethylamino)-6-(3-fluoro-5-isobutoxy-phenyl)pyridine-3-carboxamide]	3000 to 10000 nM
CC(C)COc1cc(F)cc(-c2ccc(C(=O)NS(=O)(=O)c3cccc(N)n3)c(N3CCCC4CC43)n2)c1 (stereo not drawn) [Compound 2376, N-[(6-amino-2-pyridyl)sulfonyl]-2-(5-azabicyclo[4.1.0]heptan-5-yl)-6-(3-fluoro-5-isobutoxy-phenyl)pyridine-3-carboxamide]	< 3000 nM
CC(C)COc1cc(F)cc(-c2ccc(C(=O)NS(=O)(=O)c3cccnc3)c(N3C[C@@H](C)CC3(C)C)n2)c1 [Compound 2377, 6-(3-fluoro-5-isobutoxy-phenyl)-N-(3-pyridylsulfonyl)-2-[(4S)-2,2,4-trimethylpyrrolidin-1-yl]pyridine-3-carboxamide]	< 3000 nM
COc1cc(-c2ccc(C(=O)NS(=O)(=O)c3cccnc3N)c(N3C[C@@H](C)CC3(C)C)n2)ccc1C [Compound 2379, N-[(2-amino-3-pyridyl)sulfonyl]-6-(3-methoxy-4-methyl-phenyl)-2-[(4S)-2,2,4-trimethylpyrrolidin-1-yl]pyridine-3-carboxamide]	< 3000 nM
CC1CN(c2ncccc2C(=O)NS(=O)(=O)c2cccc(N3CCC(CCN(C)C)CC3)n2)C(C)(C)C1 (stereo not drawn) [Compound 2383, N—[[6-[4-(2-dimethylaminoethyl)-1-piperidyl]-2-pyridyl]sulfonyl]-2-(2,2,4-trimethylpyrrolidin-1-yl)pyridine-3-carboxamide]	3000 to 10000 nM
CCOc1ccc(-c2cnc(N3CC(C)CC3(C)C)c(C(=O)NS(=O)(=O)c3cccc(N)n3)c2)cn1 (stereo not drawn) [Compound 2384, N-[(6-amino-2-pyridyl)sulfonyl]-5-(6-ethoxy-3-pyridyl)-2-(2,2,4-trimethylpyrrolidin-1-yl)pyridine-3-carboxamide]	< 3000 nM
C[C@@H]1CN(c2nc(-c3cccc(F)c3O)ccc2C(=O)NS(=O)(=O)c2cccc(N)n2)C(C)(C)C1 [Compound 2386, N-[(6-amino-2-pyridyl)sulfonyl]-6-(3-fluoro-2-hydroxy-phenyl)-2-[(4S)-2,2,4-trimethylpyrrolidin-1-yl]pyridine-3-carboxamide]	< 3000 nM
COc1cc(F)c(-c2ccc(C(=O)NS(=O)(=O)c3cccnc3N)c(N3C[C@@H](C)CC3(C)C)n2)cc1F [Compound 2388, N-[(2-amino-3-pyridyl)sulfonyl]-6-(2,5-difluoro-4-methoxy-phenyl)-2-[(4S)-2,2,4-trimethylpyrrolidin-1-yl]pyridine-3-carboxamide]	< 3000 nM
C[C@@H]1CN(c2nc(-c3cccc(C(F)(F)F)c3)ccc2C(=O)NS(=O)(=O)c2cccc(N)n2)C(C)(C)C1 [Compound 2392, N-[(6-amino-2-pyridyl)sulfonyl]-6-[3-(trifluoromethyl)phenyl]-2-[(4S)-2,2,4-trimethylpyrrolidin-1-yl]pyridine-3-carboxamide]	< 3000 nM
CC(C)COc1cc(F)cc(-c2ccc(C(=O)NS(=O)(=O)N3CC(C)(O)C3)c(N3C[C@@H](C)CC3(C)C)n2)c1 [Compound 2398, 6-(3-fluoro-5-isobutoxy-phenyl)-N-(3-hydroxy-3-methyl-azetidin-1-yl)sulfonyl-2-[(4S)-2,2,4-trimethylpyrrolidin-1-yl]pyridine-3-carboxamide]	< 3000 nM
C[C@@H]1CN(c2nc(-c3ccc4ccn(C)c4c3)ccc2C(=O)NS(=O)(=O)c2cccnc2N)C(C)(C)C1 [Compound 2401, N-[(2-amino-3-pyridyl)sulfonyl]-6-(I-methylindol-6-yl)-2-[(4S)-2,2,4-trimethylpyrrolidin-1-yl]pyridine-3-carboxamide]	< 3000 nM

Second part, the compound after the results:

EC30	SMILES
< 3000 nM	CC1CN(c2ncccc2C(=O)NS(=O)(=O)c2cccc(N(C)Cc3cccc(Cl)c3)n2)C(C)(C)C1 (stereo not drawn) [Compound 2378, N—[[6-[(3-chlorophenyl)methyl-methyl-amino]-2-pyridyl]sulfonyl]-2-(2,2,4-trimethylpyrrolidin-1-yl)pyridine-3-carboxamide]
< 3000 nM	COc1c(C)cccc1-c1ccc(C(=O)NS(=O)(=O)c2cccnc2N)c(N2C[C@@H](C)CC2(C)C)n1 [Compound 2380, N-[(2-amino-3-pyridyl)sulfonyl]-6-(2-methoxy-3-methyl-phenyl)-2-[(4S)-2,2,4-trimethylpyrrolidin-1-yl]pyridine-3-carboxamide]
< 3000 nM	CC1CN(c2ncccc2C(=O)NS(=O)(=O)c2cccc(Nc3cccc(C(F)(F)F)c3)n2)C(C)(C)C1 (stereo not drawn) [Compound 2381, N—[[6-[3-(trifluoromethyl)anilino]-2-pyridyl]sulfonyl]-2-(2,2,4-trimethylpyrrolidin-1-yl)pyridine-3-carboxamide]
< 3000 nM	CC1CN(c2ncccc2C(=O)NS(=O)(=O)c2cccc(N3CCCc4ccccc43)n2)C(C)(C)C1 (stereo not drawn) [Compound 2382, N—[[6-(3,4-dihydro-2H-quinolin-1-yl)-2-pyridyl]sulfonyl]-2-(2,2,4-trimethylpyrrolidin-1-yl)pyridine-3-carboxamide]
< 3000 nM	CC1CN(c2ncccc2C(=O)NS(=O)(=O)c2cccc(N3CCc4cc(Cl)ccc43)n2)C(C)(C)C1 (stereo not drawn) [Compound 2385, N—[[6-(5-chloroindolin-1-yl)-2-pyridyl]sulfonyl]-2-(2,2,4-trimethylpyrrolidin-1-yl)pyridine-3-carboxamide]
3000 to 10000 nM	CC(=O)Nc1cccc(Nc2cccc(S(=O)(=O)NC(=O)c3cccnc3N3CC(C)CC3(C)C)n2)c1 (stereo not drawn) [Compound 2387, N—[[6-(3-acetamidoanilino)-2-pyridyl]sulfonyl]-2-(2,2,4-trimethylpyrrolidin-1-yl)pyridine-3-carboxamide]
3000 to 10000 nM	CC1CN(c2ncccc2C(=O)NS(=O)(=O)c2cccc(Nc3ccc4[nH]ncc4c3)n2)C(C)(C)C1 (stereo not drawn) [Compound 2389, N—[[6-(1H-indazol-5-ylamino)-2-pyridyl]sulfonyl]-2-(2,2,4-trimethylpyrrolidin-1-yl)pyridine-3-carboxamide]
< 3000 nM	CC1CN(c2ncccc2C(=O)NS(=O)(=O)c2cccc(OCc3c(Cl)cccc3Cl)n2)C(C)(C)C1 (stereo not drawn) [Compound 2390, N—[[6-[(2,6-dichlorophenyl)methoxy]-2-pyridyl]sulfonyl]-2-(2,2,4-trimethylpyrrolidin-1-yl)pyridine-3-carboxamide]
< 3000 nM	Cc1cccc(CNc2cccc(S(=O)(=O)NC(=O)c3cccnc3N3CC(C)CC3(C)C)n2)c1 (stereo not drawn) [Compound 2391, N—[[6-(m-tolylmethylamino)-2-pyridyl]sulfonyl]-2-(2,2,4-trimethylpyrrolidin-1-yl)pyridine-3-carboxamide]
3000 to 10000 nM	CC1CN(c2ncccc2C(=O)NS(=O)(=O)c2cccc(N3CC[C@H](F)C3)n2)C(C)(C)C1 (stereo partly drawn) [Compound 2393, N—[[6-[(3S)-3-fluoropyrrolidin-1-yl]-2-pyridyl]sulfonyl]-2-(2,2,4-trimethylpyrrolidin-1-yl)pyridine-3-carboxamide]
< 3000 nM	Cc1ccc(F)cc1-c1ccc(C(=O)NS(=O)(=O)c2cccc(N)n2)c(N2C[C@@H](C)CC2(C)C)n1 [Compound 2394, N-[(6-amino-2-pyridyl)sulfonyl]-6-(5-fluoro-2-methyl-phenyl)-2-[(4S)-2,2,4-trimethylpyrrolidin-1-yl]pyridine-3-carboxamide]
< 3000 nM	CC(C)Cc1ccc(-c2cnc(N3CC(C)CC3(C)C)c(C(=O)NS(=O)(=O)c3cccc(N)n3)c2)cc1 (stereo not drawn) [Compound 2395, N-[(6-amino-2-pyridyl)sulfonyl]-5-(4-isobutylphenyl)-2-(2,2,4-trimethylpyrrolidin-1-yl)pyridine-3-carboxamide]
3000 to 10000 nM	CC1CN(c2ncccc2C(=O)NS(=O)(=O)c2cccc(OCC3CCOC3)n2)C(C)(C)C1 (stereo not drawn) [Compound 2396, N—[[6-(tetrahydrofuran-3-ylmethoxy)-2-pyridyl]sulfonyl]-2-(2,2,4-trimethylpyrrolidin-1-yl)pyridine-3-carboxamide]
< 3000 nM	CC1CN(c2ncccc2C(=O)NS(=O)(=O)c2cccc(Nc3ccccc3C(F)(F)F)n2)C(C)(C)C1 (stereo not drawn) [Compound 2397, N—[[6-[2-(trifluoromethyl)anilino]-2-pyridyl]sulfonyl]-2-(2,2,4-trimethylpyrrolidin-1-yl)pyridine-3-carboxamide]
< 3000 nM	CC1CN(c2ncc(-c3ccc(Cl)cc3)cc2C(=O)NS(=O)(=O)c2cccc(N)n2)C(C)(C)C1 (stereo not drawn) [Compound 2399, N-[(6-amino-2-pyridyl)sulfonyl]-5-(4-chlorophenyl)-2-(2,2,4-trimethylpyrrolidin-1-yl)pyridine-3-carboxamide]
3000 to 10000 nM	CC1CN(c2ncccc2C(=O)NS(=O)(=O)c2cccc(NCCN(C)C(=O)OC(C)(C)C)n2)C(C)(C)C1 (stereo not drawn) [Compound 2400, tert-butyl N-methyl-N—[2-[[6-[[2-(2,2,4-trimethylpyrrolidin-1-yl)pyridine-3-carbonyl]sulfamoyl]-2-pyridyl]amino]ethyl]carbamate]
< 3000 nM	CC1CN(c2ncccc2C(=O)NS(=O)(=O)c2cccc(OCc3ccc(Cl)c(Cl)c3)n2)C(C)(C)C1 (stereo not drawn) [Compound 2402, N—[[6-[(3,4-dichlorophenyl)methoxy]-2-pyridyl]sulfonyl]-2-(2,2,4-trimethylpyrrolidin-1-yl)pyridine-3-carboxamide]
